Experiments:
Assay type in all cases: cell-based
human TLR7 = human TLR7 (Homo sapiens (Human), UniProt Q9NYK1); assay: TLR7 inhibition reporter assay (HEK-Blue, SEAP); conditions: HEK-Blue cells overexpressing human TLR7, gardiquimod 7.5 μM stimulation
Procedure, shortened: (§1)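 HEK-Blue cells overexpressing the receptor carry a SEAP reporter under IFN-β minimal promoter with NF-κB/AP-1 sites. Compounds (0.05 nM–50 μM final) were preincubated 30 min at room temperature, then cells were stimulated with gardiquimod 7.5 μM (TLR7), R848 15.9 μM (TLR8) or ODN2006 5 nM (TLR9) for 22 h at 37 °C.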

human TLR8 = human TLR8 (Homo sapiens (Human), UniProt Q9NR97); assay: TLR8 inhibition reporter assay (HEK-Blue, SEAP); conditions: HEK-Blue cells overexpressing human TLR8, R848 15.9 μM stimulation
Chain of human TLR8 (Q9NR97 27-1041): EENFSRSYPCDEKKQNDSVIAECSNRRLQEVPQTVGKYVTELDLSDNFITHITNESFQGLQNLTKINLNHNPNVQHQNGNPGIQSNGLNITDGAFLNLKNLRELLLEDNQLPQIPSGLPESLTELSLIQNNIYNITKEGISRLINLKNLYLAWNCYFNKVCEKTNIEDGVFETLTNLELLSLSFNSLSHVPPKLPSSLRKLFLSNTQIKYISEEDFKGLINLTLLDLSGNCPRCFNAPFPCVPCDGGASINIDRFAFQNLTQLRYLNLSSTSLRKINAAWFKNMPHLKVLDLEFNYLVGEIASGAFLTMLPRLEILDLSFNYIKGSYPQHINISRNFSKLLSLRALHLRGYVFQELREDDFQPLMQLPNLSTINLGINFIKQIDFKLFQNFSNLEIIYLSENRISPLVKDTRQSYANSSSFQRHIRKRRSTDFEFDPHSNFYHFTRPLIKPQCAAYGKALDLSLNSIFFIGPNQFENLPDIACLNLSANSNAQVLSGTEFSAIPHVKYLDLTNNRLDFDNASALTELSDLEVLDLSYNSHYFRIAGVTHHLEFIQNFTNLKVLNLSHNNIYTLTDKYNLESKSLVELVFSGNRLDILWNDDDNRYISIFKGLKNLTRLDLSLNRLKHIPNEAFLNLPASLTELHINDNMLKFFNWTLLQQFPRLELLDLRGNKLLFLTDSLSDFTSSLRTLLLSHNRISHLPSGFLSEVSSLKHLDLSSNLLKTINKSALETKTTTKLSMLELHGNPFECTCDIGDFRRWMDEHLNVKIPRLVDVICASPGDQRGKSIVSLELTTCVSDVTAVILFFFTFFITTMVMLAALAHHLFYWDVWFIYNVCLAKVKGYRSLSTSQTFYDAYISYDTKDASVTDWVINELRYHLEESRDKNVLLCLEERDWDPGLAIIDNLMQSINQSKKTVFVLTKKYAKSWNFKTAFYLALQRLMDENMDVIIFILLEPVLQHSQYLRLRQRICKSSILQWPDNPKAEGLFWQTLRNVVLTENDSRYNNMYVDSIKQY
Procedure, shortened: as §1

human TLR9 = human TLR9 (Homo sapiens (Human), UniProt Q9NR96); assay: TLR9 inhibition reporter assay (HEK-Blue, SEAP); conditions: HEK-Blue cells overexpressing human TLR9, ODN2006 5 nM stimulation
Chain of human TLR9 (Q9NR96 26-1032): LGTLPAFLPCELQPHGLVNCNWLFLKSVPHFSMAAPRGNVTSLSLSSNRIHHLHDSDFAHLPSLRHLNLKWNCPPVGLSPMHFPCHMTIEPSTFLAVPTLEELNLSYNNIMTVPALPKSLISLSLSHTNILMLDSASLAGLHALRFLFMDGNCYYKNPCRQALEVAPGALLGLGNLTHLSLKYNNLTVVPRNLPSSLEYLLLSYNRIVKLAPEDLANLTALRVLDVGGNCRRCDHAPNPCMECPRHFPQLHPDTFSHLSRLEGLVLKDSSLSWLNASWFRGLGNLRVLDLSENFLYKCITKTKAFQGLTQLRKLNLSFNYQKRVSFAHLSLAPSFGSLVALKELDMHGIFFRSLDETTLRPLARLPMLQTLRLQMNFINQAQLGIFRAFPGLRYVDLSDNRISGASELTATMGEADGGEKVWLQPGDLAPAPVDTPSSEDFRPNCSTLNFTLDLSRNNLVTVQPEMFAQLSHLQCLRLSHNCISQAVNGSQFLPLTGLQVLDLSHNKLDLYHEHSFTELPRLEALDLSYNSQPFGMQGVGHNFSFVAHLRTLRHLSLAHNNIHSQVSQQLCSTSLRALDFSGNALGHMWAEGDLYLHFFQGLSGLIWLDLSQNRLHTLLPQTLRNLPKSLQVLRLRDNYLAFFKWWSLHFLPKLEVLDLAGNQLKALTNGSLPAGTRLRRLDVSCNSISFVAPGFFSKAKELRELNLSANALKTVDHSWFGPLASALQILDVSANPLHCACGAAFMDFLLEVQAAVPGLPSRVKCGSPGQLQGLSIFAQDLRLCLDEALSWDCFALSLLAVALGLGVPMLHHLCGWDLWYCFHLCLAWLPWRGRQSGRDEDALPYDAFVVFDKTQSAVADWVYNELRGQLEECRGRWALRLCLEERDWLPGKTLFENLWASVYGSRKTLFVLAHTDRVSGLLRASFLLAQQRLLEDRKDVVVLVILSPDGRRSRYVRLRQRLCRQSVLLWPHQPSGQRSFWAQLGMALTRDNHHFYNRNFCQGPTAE
Procedure, shortened: as §1

Chain of human TLR7 (Q9NYK1 27-1049): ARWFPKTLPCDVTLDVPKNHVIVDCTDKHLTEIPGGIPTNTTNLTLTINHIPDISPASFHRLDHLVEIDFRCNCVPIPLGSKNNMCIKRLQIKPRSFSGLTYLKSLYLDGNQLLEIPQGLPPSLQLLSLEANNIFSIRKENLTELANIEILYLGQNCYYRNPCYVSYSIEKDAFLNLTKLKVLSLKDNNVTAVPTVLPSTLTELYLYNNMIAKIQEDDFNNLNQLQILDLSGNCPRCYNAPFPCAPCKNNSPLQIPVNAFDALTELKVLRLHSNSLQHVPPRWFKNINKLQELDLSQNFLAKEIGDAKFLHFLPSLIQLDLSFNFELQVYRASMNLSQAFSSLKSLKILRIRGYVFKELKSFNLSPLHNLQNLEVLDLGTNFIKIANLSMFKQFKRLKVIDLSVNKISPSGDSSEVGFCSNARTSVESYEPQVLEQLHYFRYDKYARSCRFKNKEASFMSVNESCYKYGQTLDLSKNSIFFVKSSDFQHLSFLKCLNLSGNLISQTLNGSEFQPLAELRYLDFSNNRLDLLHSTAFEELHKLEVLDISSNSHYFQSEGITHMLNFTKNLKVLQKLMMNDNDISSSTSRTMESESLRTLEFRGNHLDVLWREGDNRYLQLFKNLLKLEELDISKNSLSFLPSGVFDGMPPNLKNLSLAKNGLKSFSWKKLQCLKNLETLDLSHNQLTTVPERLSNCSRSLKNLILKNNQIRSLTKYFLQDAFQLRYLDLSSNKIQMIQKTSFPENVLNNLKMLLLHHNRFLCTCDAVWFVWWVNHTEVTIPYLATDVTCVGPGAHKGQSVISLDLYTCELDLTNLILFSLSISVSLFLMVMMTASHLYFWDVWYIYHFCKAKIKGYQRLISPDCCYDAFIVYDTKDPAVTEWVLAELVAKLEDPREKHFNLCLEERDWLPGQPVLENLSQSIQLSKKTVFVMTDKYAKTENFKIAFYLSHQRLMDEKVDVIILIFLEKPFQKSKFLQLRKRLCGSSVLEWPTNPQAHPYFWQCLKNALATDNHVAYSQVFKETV

Cc1cc(-c2[nH]c3ccc(-c4nccs4)cc3c2C(C)C)ccn1 [Example 171, 2-(3-isopropyl-2-(2-methylpyridin-4-yl)-1H-indol-5-yl)thiazole]
IC50 (human TLR7): 159 nM
IC50 (human TLR8): 19 nM
IC50 (human TLR9): > 50000 nM

Cc1cc(-c2[nH]c3ccc(-c4nc(C(=O)N5CC6CNCC6C5)co4)cc3c2C(C)C)ccn1 (stereo not drawn) [Example 172, (hexahydropyrrolo[3,4-c]pyrrol-2(1H)-yl)(2-(3-isopropyl-2-(2-methylpyridin-4-yl)-1H-indol-5-yl)oxazol-4-yl)methanone]
IC50 (human TLR7): 49 nM
IC50 (human TLR8): 2.3 nM
IC50 (human TLR9): 2150 nM

Cc1cc(-c2[nH]c3ccc(-c4nc(C(=O)NC5CCN(C(C)C)CC5)co4)cc3c2C(C)C)ccn1 [Example 173, 2-(3-isopropyl-2-(2-methylpyridin-4-yl)-1H-indol-5-yl)-N-(1-isopropylpiperidin-4-yl)oxazole-4-carboxamide]
IC50 (human TLR7): 46 nM
IC50 (human TLR8): 2.9 nM
IC50 (human TLR9): 1840 nM

Cc1cc(-c2[nH]c3ccc(-c4nnc(N)o4)cc3c2C(C)C)ccn1 [Example 174, 5-(3-isopropyl-2-(2-methylpyridin-4-yl)-1H-indol-5-yl)-1,3,4-oxadiazol-2-amine]
IC50 (human TLR7): 53 nM
IC50 (human TLR8): 14 nM
IC50 (human TLR9): 44300 nM

CNC(=O)CN1CCCC(c2nnc(-c3ccc4[nH]c(-c5ccnc(C)c5)c(C(C)C)c4c3)[nH]2)C1 (stereo not drawn) [Example 175, 2-(3-(5-(3-isopropyl-2-(2-methylpyridin-4-yl)-1H-indol-5-yl)-4H-1,2,4-triazol-3-yl)piperidin-1-yl)-N-methylacetamide]
IC50 (human TLR7): 560 nM
IC50 (human TLR8): 7.4 nM
IC50 (human TLR9): > 50000 nM

Cc1cc(-c2[nH]c3ccc(-c4nnc(C5CCCN(C(=O)CN(C)C)C5)[nH]4)cc3c2C(C)C)ccn1 (stereo not drawn) [Example 176, 2-(dimethylamino)-1-(3-(5-(3-isopropyl-2-(2-methylpyridin-4-yl)-1H-indol-5-yl)-4H-1,2,4-triazol-3-yl)piperidin-1-yl)ethan-1-one]
IC50 (human TLR7): 51 nM
IC50 (human TLR8): 6.3 nM
IC50 (human TLR9): 1920 nM

CC(C)c1c(-c2ccnc3[nH]ncc23)[nH]c2ccc(-c3ccnc4[nH]ncc34)cc12 [Example 177, 4,4′-(3-isopropyl-1H-indole-2,5-diyl)bis(1H-pyrazolo[3,4-b]pyridine)]
IC50 (human TLR7): 45 nM
IC50 (human TLR8): 3.7 nM
IC50 (human TLR9): 24100 nM

Cc1cc(-c2[nH]c3ccc(-c4nnc(C5CCCNC5)[nH]4)cc3c2C(C)C)ccn1 (stereo not drawn) [Example 178, 3-isopropyl-2-(2-methylpyridin-4-yl)-5-(5-(piperidin-3-yl)-4H-1,2,4-triazol-3-yl)-1H-indole]
IC50 (human TLR7): 220 nM
IC50 (human TLR8): 12 nM
IC50 (human TLR9): 3990 nM

Cc1cc(-c2[nH]c3ccc(-c4nnc(C5CCCC(N)C5)o4)cc3c2C(C)C)ccn1 (stereo not drawn) [Example 179, 3-(5-(3-isopropyl-2-(2-methylpyridin-4-yl)-1H-indol-5-yl)-1,3,4-oxadiazol-2-yl)cyclohexan-1-amine]
IC50 (human TLR7): 980 nM
IC50 (human TLR8): 6 nM
IC50 (human TLR9): 2790 nM

Cc1cc(-c2[nH]c3ccc(-c4nnc(C5CCCN(CC(=O)N(C)C)C5)[nH]4)cc3c2C(C)C)ccn1 (stereo not drawn) [Example 180, 2-(3-(5-(3-isopropyl-2-(2-methylpyridin-4-yl)-1H-indol-5-yl)-4H-1,2,4-triazol-3-yl)piperidin-1-yl)-N,N-dimethylacetamide]
IC50 (human TLR7): 31 nM
IC50 (human TLR8): 2.2 nM
IC50 (human TLR9): 872 nM

CC(C)c1c(-c2ccnc3n[nH]cc23)[nH]c2ccc(-c3nccs3)cc12 [Example 181, 2-(3-isopropyl-2-(2H-pyrazolo[3,4-b]pyridin-4-yl)-1H-indol-5-yl)thiazole]
IC50 (human TLR7): 680 nM
IC50 (human TLR8): 36 nM
IC50 (human TLR9): 35100 nM

CC(C)c1c(-c2ccnc3[nH]ncc23)[nH]c2ccc(-c3nnc(CC4CCCNC4)o3)cc12 (stereo not drawn) [Example 182, 2-(3-isopropyl-2-(1H-pyrazolo[3,4-b]pyridin-4-yl)-1H-indol-5-yl)-5-(piperidin-3-ylmethyl)-1,3,4-oxadiazole]
IC50 (human TLR7): 332 nM
IC50 (human TLR8): 44 nM
IC50 (human TLR9): 595 nM

CC(C)c1c(-c2ccnc3n[nH]cc23)[nH]c2ccc(-c3nc(C(=O)NC4CCN(C(C)C)CC4)co3)cc12 [Example 183, 2-(3-isopropyl-2-(2H-pyrazolo[3,4-b]pyridin-4-yl)-1H-indol-5-yl)-N-(1-isopropylpiperidin-4-yl)oxazole-4-carboxamide]
IC50 (human TLR7): 137 nM
IC50 (human TLR8): 5.8 nM
IC50 (human TLR9): 427 nM

Cc1cc(-c2[nH]c3ccc(-c4nnc(C5CCCNC5)[nH]4)cc3c2C(C)C)ccn1 (stereo not drawn) [Example 184, 3-isopropyl-2-(2-methylpyridin-4-yl)-5-(5-(piperidin-3-yl)-4H-1,2,4-triazol-3-yl)-1H-indole]
IC50 (human TLR7): 71 nM
IC50 (human TLR8): 77 nM
IC50 (human TLR9): 7480 nM

Cc1cc(-c2[nH]c3ccc(-c4nnc(C5CCN(CC(=O)N(C)C)CC5)[nH]4)cc3c2C(C)C)ccn1 [Example 185, 2-(4-(5-(3-isopropyl-2-(2-methylpyridin-4-yl)-1H-indol-5-yl)-4H-1,2,4-triazol-3-yl)piperidin-1-yl)-N,N-dimethylacetamide]
IC50 (human TLR7): 84 nM
IC50 (human TLR8): 3.3 nM
IC50 (human TLR9): 7590 nM

Cc1cc(-c2[nH]c3ccc(-c4nnc(C5CCN(C(=O)CN(C)C)CC5)[nH]4)cc3c2C(C)C)ccn1 [Example 186, 2-(dimethylamino)-1-(4-(5-(3-isopropyl-2-(2-methylpyridin-4-yl)-1H-indol-5-yl)-4H-1,2,4-triazol-3-yl)piperidin-1-yl)ethan-1-one]
IC50 (human TLR7): 28 nM
IC50 (human TLR8): 16 nM
IC50 (human TLR9): 1500 nM

Cc1cc(-c2[nH]c3ccc(-c4nnc(C5CCN(C(C)C)CC5)[nH]4)cc3c2C(C)C)ccn1 [Example 187, 3-isopropyl-5-(5-(1-isopropylpiperidin-4-yl)-4H-1,2,4-triazol-3-yl)-2-(2-methylpyridin-4-yl)-1H-indole]
IC50 (human TLR7): 70 nM
IC50 (human TLR8): 6.7 nM
IC50 (human TLR9): 4100 nM

Cc1cc(-c2[nH]c3ccc(-c4nnc(C5CCCN(C(C)C)C5)[nH]4)cc3c2C(C)C)ccn1 (stereo not drawn) [Example 188, 3-isopropyl-5-(5-(1-isopropylpiperidin-3-yl)-4H-1,2,4-triazol-3-yl)-2-(2-methylpyridin-4-yl)-1H-indole]
IC50 (human TLR7): 28 nM
IC50 (human TLR8): 3 nM
IC50 (human TLR9): 328 nM

Cc1cc(-c2[nH]c3ccc(-c4nc(C5CCNCC5)c[nH]4)cc3c2C(C)C)ccn1 [Example 189, 3-isopropyl-2-(2-methylpyridin-4-yl)-5-(4-(piperidin-4-yl)-1H-imidazol-2-yl)-1H-indole]
IC50 (human TLR7): 175 nM
IC50 (human TLR8): 43 nM
IC50 (human TLR9): 921 nM

Cc1cc(-c2[nH]c3ccc(-c4nnc(NC(=O)CN(C)C)o4)cc3c2C(C)C)ccn1 [Example 190, 2-(dimethylamino)-N-(5-(3-isopropyl-2-(2-methylpyridin-4-yl)-1H-indol-5-yl)-1,3,4-oxadiazol-2-yl)acetamide]
IC50 (human TLR7): 258 nM
IC50 (human TLR8): 9.1 nM
IC50 (human TLR9): 48500 nM

Cc1cc(-c2[nH]c3ccc(-c4nc(C(=O)NC5CCN(C(C)C)CC5)c(C)o4)cc3c2C(C)C)ccn1 [Example 191, 2-(3-isopropyl-2-(2-methylpyridin-4-yl)-1H-indol-5-yl)-N-(1-isopropylpiperidin-4-yl)-5-methyloxazole-4-carboxamide]
IC50 (human TLR7): 113 nM
IC50 (human TLR8): 13 nM
IC50 (human TLR9): 3410 nM

Cc1cc(-c2[nH]c3ccc(-c4nc(C)cs4)cc3c2C(C)C)ccn1 [Example 192, 2-(3-isopropyl-2-(2-methylpyridin-4-yl)-1H-indol-5-yl)-4-methylthiazole]
IC50 (human TLR7): 1000 nM
IC50 (human TLR8): 213 nM
IC50 (human TLR9): 2880 nM

Cc1cc(-c2[nH]c3ccc(-c4cnc(N)nc4)cc3c2C(C)C)ccn1 [Example 193, 5-(3-isopropyl-2-(2-methylpyridin-4-yl)-1H-indol-5-yl)pyrimidin-2-amine]
IC50 (human TLR7): 264 nM
IC50 (human TLR8): 71 nM
IC50 (human TLR9): > 50000 nM

Cc1cc(-c2[nH]c3ccc(-c4nc(C(=O)NCC5CCNC5)c(C)o4)cc3c2C(C)C)ccn1 (stereo not drawn) [Example 194, 2-(3-isopropyl-2-(2-methylpyridin-4-yl)-1H-indol-5-yl)-5-methyl-N-(pyrrolidin-3-ylmethyl)oxazole-4-carboxamide]
IC50 (human TLR7): 112 nM
IC50 (human TLR8): 86 nM
IC50 (human TLR9): 11700 nM

CC(C)c1c(-c2ccnc3[nH]ncc23)[nH]c2ccc(-c3nnc(C(=O)NCCN(C)C)s3)cc12 [Example 195, N-(2-(dimethylamino)ethyl)-5-(3-isopropyl-2-(1H-pyrazolo[3,4-b]pyridin-4-yl)-1H-indol-5-yl)-1,3,4-thiadiazole-2-carboxamide]
IC50 (human TLR7): 18 nM
IC50 (human TLR8): 2.5 nM
IC50 (human TLR9): 668 nM

Cc1cc(-c2[nH]c3ccc(-c4nnc(C5CCNCC5)[nH]4)cc3c2C(C)C)ccn1 [Example 196, 3-isopropyl-2-(2-methylpyridin-4-yl)-5-(5-(piperidin-4-yl)-4H-1,2,4-triazol-3-yl)-1H-indole]
IC50 (human TLR7): 277 nM
IC50 (human TLR8): 83 nM
IC50 (human TLR9): 6970 nM

Cc1cc(-c2[nH]c3ccc(-c4nc(C(=O)NCC5CCNC5)co4)cc3c2C(C)C)ccn1 (stereo not drawn) [Example 197, 2-(3-isopropyl-2-(2-methylpyridin-4-yl)-1H-indol-5-yl)-N-(pyrrolidin-3-ylmethyl)oxazole-4-carboxamide]
IC50 (human TLR7): 440 nM
IC50 (human TLR8): 61 nM
IC50 (human TLR9): 13000 nM

Cc1cc(-c2[nH]c3ccc(-c4ccc(NC(=O)CN(C)C)nc4)cc3c2C(C)C)ccn1 [Example 198, 2-(dimethylamino)-N-(5-(3-isopropyl-2-(2-methylpyridin-4-yl)-1H-indol-5-yl)pyridin-2-yl)acetamide]
IC50 (human TLR7): 26 nM
IC50 (human TLR8): 3 nM
IC50 (human TLR9): 654 nM
